Test: Absorbance measurement of component (b) and derived sensitizing agent, 0.0001% by mass cyclohexane solution
Assay type: physicochemical
Procedure: The component (b) and the sensitizing agent derived from the component (b) are shown together in Table 2. With respect to each of the components (b) and the sensitizing agents derived from the components (b), a 0.0001% by mass cyclohexane solution thereof was prepared. The absorbance of the solution prepared thus was measured using cyclohexane as a reference solvent and a spectrophotometer (“V-670” available from JASCO Corporation).
The absorbance was evaluated to be: “transparent” in a case where the measurement value of the absorbance was less than 0.01 over the entire wavelength range of no less than 300 nm and no greater than 450 nm; and “absorbing” in a case where the measurement value of the absorbance was no less than 0.01 at at least one wavelength within the entire wavelength range of no less than 300 nm and no greater than 450 nm.

Structure (SMILES) | Absorbance (300-450 nm) of (b) component
COc1ccc(C(OC)(OC)c2ccc(OC)cc2)cc1 [Example B-2] | transparent (the measurement value of the absorbance was less than 0.01 over the entire wavelength range of no less than 300 nm and no greater than 450 nm)
COc1ccc(C(O)c2ccc(OC)cc2)cc1 [Example B-1, bis(4-methoxyphenyl)methanol] | transparent (the measurement value of the absorbance was less than 0.01 over the entire wavelength range of no less than 300 nm and no greater than 450 nm)

Source: patent US10018911B2, “Chemically amplified resist material and resist pattern-forming method” (JSR CORPORATION, priority 2015, dated 2018)
